{"source": "paper PMC8256712", "about": "“Crystal structures of Aspergillus oryzae Rib2 deaminase: the functional mechanism involved in riboflavin biosynthesis” (IUCrJ, 2021)", "key": {"AoRib2": {"biological_target": "T1, AoRib2 (Aspergillus oryzae, UniProt Q2UFA9)", "T1 construct": "gene rib2; full length, 222 residues; monomer", "T1 sequence (Q2UFA9 1-222)": "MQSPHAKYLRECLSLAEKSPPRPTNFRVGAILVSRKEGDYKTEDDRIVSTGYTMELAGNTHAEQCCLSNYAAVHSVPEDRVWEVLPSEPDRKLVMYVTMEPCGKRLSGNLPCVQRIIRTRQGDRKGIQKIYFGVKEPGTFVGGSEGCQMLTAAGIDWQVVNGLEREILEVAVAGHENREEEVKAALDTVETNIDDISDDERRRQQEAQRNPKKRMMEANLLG", "test": "deaminase assay, fluorescence after diacetyl modification", "type": "biochemical", "settings": "310 K, 30 min; DARIPP made enzymatically in situ from GTP"}, "AoRib2_188": {"biological_target": "T2, AoRib2_188 (Aspergillus oryzae, UniProt Q2UFA9)", "T2 construct": "gene rib2; deaminase domain, residues 1-188 of 222, C-terminal segment deleted; Zn ligands His61, Cys102, Cys112, general base Glu63", "T2 sequence (Q2UFA9 1-188)": "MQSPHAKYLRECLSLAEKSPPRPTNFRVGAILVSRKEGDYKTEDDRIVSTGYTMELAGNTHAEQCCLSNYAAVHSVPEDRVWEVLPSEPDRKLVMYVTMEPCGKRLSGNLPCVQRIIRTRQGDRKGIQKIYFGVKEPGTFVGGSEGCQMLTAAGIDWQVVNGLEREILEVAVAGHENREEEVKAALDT", "test": "X-ray crystal structure, soaked, […] A", "type": "binding", "settings": "crystals pH 6.5 (MES), soaked 20 min in 50-100 mM DARIPP; active site with Zn2+"}}}
{"smiles": "Nc1nc(NC[C@H](O)[C@H](O)[C@H](O)COP(=O)(O)O)c(N)c(=O)[nH]1", "note": "[DARIPP, 2,5-diamino-6-ribitylamino-4(3H)-pyrimidinone 5′-phosphate]", "values": [{"measurement": "deaminase assay, fluorescence after diacetyl modification", "setting": "AoRib2", "result": "the recombinant protein is able to catalyze the conversion of DARIPP to ARIPP"}, {"measurement": "X-ray crystal structure, soaked, 1.58 A", "setting": "AoRib2_188", "result": "DARIPP could be built nicely into strong electron density and is firmly embedded in the active site"}]}
